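Step 1: Grow cells in 96-well plates. Step 2: Expose to compound for 48 hours at 5 concentrations. Step 3: Interpolate endpoints linearly; if unreached, use highest concentration. TGI denotes the concentration required for complete inhibition of growth.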
Tests used:
Experiment in all cases: inhibition of tumour cell growth, NCI panel, 48 h
786-0 renal = system: 786-0 renal
A498 renal = system: A498 renal
A549 NSCLC = system: A549 NSCLC
ACHN renal = system: ACHN renal
CAKI-1 renal = system: CAKI-1 renal
CCRF-CEM leukemia = system: CCRF-CEM leukemia
COLO 205 colon = system: COLO 205 colon
DLD-1 colon = system: DLD-1 colon
DMS 114 small cell lung = system: DMS 114 small cell lung
DMS 273 small cell lung = system: DMS 273 small cell lung
EKVX NSCLC = system: EKVX NSCLC
HCC-2998 colon = system: HCC-2998 colon
HCT-116 colon = system: HCT-116 colon
HCT-15 colon = system: HCT-15 colon
HL-60(TB) leukemia = system: HL-60(TB) leukemia
HOP-18 NSCLC = system: HOP-18 NSCLC
HOP-62 NSCLC = system: HOP-62 NSCLC
HOP-92 NSCLC = system: HOP-92 NSCLC
HT29 colon = system: HT29 colon
IGROV1 ovarian = system: IGROV1 ovarian
K-562 leukemia = system: K-562 leukemia
KM12 colon = system: KM12 colon
LOX IMVI melanoma = system: LOX IMVI melanoma
LXFL 529 NSCLC = system: LXFL 529 NSCLC
M14 melanoma = system: M14 melanoma
M19-MEL melanoma = system: M19-MEL melanoma
MALME-3M melanoma = system: MALME-3M melanoma
MOLT-4 leukemia = system: MOLT-4 leukemia
NCI-H226 lung = system: NCI-H226 lung
NCI-H23 lung = system: NCI-H23 lung
NCI-H460 lung = system: NCI-H460 lung
NCI-H522 lung = system: NCI-H522 lung
OVCAR-3 ovarian = system: OVCAR-3 ovarian
OVCAR-4 ovarian = system: OVCAR-4 ovarian
OVCAR-5 ovarian = system: OVCAR-5 ovarian
OVCAR-8 ovarian = system: OVCAR-8 ovarian
RPMI-8226 leukemia = system: RPMI-8226 leukemia
RXF-631 renal = system: RXF-631 renal
SF-295 CNS = system: SF-295 CNS
SF-539 CNS = system: SF-539 CNS
SK-MEL-2 melanoma = system: SK-MEL-2 melanoma
SK-MEL-28 melanoma = system: SK-MEL-28 melanoma
SK-MEL-5 melanoma = system: SK-MEL-5 melanoma
SK-OV-3 ovarian = system: SK-OV-3 ovarian
SN12C renal = system: SN12C renal
SNB-19 CNS = system: SNB-19 CNS
SNB-75 CNS = system: SNB-75 CNS
SNB-78 CNS = system: SNB-78 CNS
SR leukemia = system: SR leukemia
SW-620 colon = system: SW-620 colon
TK-10 renal = system: TK-10 renal
U251 CNS = system: U251 CNS
UACC-257 melanoma = system: UACC-257 melanoma
UACC-62 melanoma = system: UACC-62 melanoma
UO-31 renal = system: UO-31 renal

Measured: TGI

O=c1[nH]ccc2c1ccn2C1CC(O)C(CO)O1 (stereo not given)
> 100 µM: all assays above

Source: PubChem BioAssay (NCI)
